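Dose response: 5 concentrations. Exposure: 48 h. Format: 96-well plates. Endpoint: linear interpolation; highest concentration if not reached. At the GI50, growth is halved. The concentration for full growth arrest is given as TGI.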

Test systems include HT29 colon; OVCAR-4 ovarian; M14 melanoma; HL-60(TB) leukemia; COLO 205 colon; UACC-62 melanoma; KM12 colon; ACHN renal; SW-620 colon; 786-0 renal.
Test in all cases: NCI anticancer screen, dose series, 48 h

Turning to `COc1ccc(-c2nc3sc(-c4cc(OC)c(OC)c(OC)c4)nn3c2/C=C2/C(=O)Nc3ccc(F)cc32)cc1`, the GI50 in the assay on HT29 colon was 2.18 µM; in the assay with OVCAR-4 ovarian it was 1.77 µM; with M14 melanoma it was 5.51 µM; with HL-60(TB) leukemia, 2.17 µM; in the assay on COLO 205 colon it was 1.61 µM; with UACC-62 melanoma, 13.3 µM. Further, the GI50 was 4.04 µM in the assay on KM12 colon, 3.29 µM with ACHN renal, 3.22 µM in the assay on SW-620 colon and 16 µM with 786-0 renal. For the same compound, the TGI in the assay on HT29 colon is 4.68 µM; in the assay with OVCAR-4 ovarian, 4.51 µM; with M14 melanoma, 28.1 µM; in the assay on HL-60(TB) leukemia it was 70.3 µM; in the assay on COLO 205 colon it was 4.13 µM; with UACC-62 melanoma it was 33.4 µM. The TGI in the assay with KM12 colon was found to be 15.7 µM; with ACHN renal it was 15.3 µM; in the assay on SW-620 colon, 14.8 µM; with 786-0 renal, 32.7 µM.
Regarding `Nc1ccc(/C=C/c2ccc3ncccc3c2)cc1`, the GI50 in the assay with HT29 colon is over 100 µM; in the assay on OVCAR-4 ovarian it was over 100 µM; with M14 melanoma it was over 100 µM; in the assay on HL-60(TB) leukemia, 1.52 µM; in the assay with COLO 205 colon, over 100 µM; in the assay with UACC-62 melanoma it was over 100 µM. In addition, the GI50 with KM12 colon was 49.1 µM; with ACHN renal, over 100 µM; in the assay with SW-620 colon, over 100 µM; in the assay with 786-0 renal it was over 100 µM. The TGI in the assay on HT29 colon, in the assay on OVCAR-4 ovarian, in the assay on M14 melanoma, with HL-60(TB) leukemia, in the assay with COLO 205 colon and in the assay with UACC-62 melanoma was over 100 µM each time. In addition, the TGI in the assay on KM12 colon, in the assay on ACHN renal, with SW-620 colon and with 786-0 renal was over 100 µM in each case.
On to `CCN(Cc1ccc(OC)cc1)c1ccc(CO)c(Cl)c1`, for which the GI50 in the assay on HT29 colon was 2.07 µM; in the assay with OVCAR-4 ovarian, 0.369 µM; with M14 melanoma it was 16.1 µM; with HL-60(TB) leukemia, 13.8 µM; in the assay with COLO 205 colon, 0.451 µM; with UACC-62 melanoma, 0.0986 µM. Moreover, the GI50 in the assay with KM12 colon is 18.3 µM; with ACHN renal it was 19.3 µM; in the assay with SW-620 colon, 1.04 µM; in the assay with 786-0 renal, 10.6 µM. For the same compound, the TGI in the assay with HT29 colon was 17.3 µM; in the assay on OVCAR-4 ovarian, 15.9 µM; with M14 melanoma, 58.3 µM; in the assay on HL-60(TB) leukemia, 59.9 µM; with COLO 205 colon, 3.31 µM; with UACC-62 melanoma it was 0.686 µM. Further, the TGI with KM12 colon was 44.7 µM; in the assay on ACHN renal, over 81.5 µM; in the assay with SW-620 colon, over 100 µM; in the assay with 786-0 renal, 45.4 µM.
For the compound `O=C(/C=C/c1ccccc1)NC1C=Nc2ccc([N+](=O)[O-])cc2NC1=O` (stereo not given), the TGI with HT29 colon, in the assay with OVCAR-4 ovarian, with M14 melanoma, with HL-60(TB) leukemia, with COLO 205 colon and in the assay on UACC-62 melanoma was over 100 µM throughout. The TGI in the assay on KM12 colon was 86.7 µM; in the assay with ACHN renal, over 100 µM; with SW-620 colon, over 100 µM; with 786-0 renal, over 100 µM.
As to `O=[N+]([O-])c1ccc(C2=NCCO2)cc1`, the GI50 in the assay on HT29 colon, in the assay on OVCAR-4 ovarian, in the assay on M14 melanoma, in the assay on HL-60(TB) leukemia, in the assay on COLO 205 colon and in the assay with UACC-62 melanoma was over 100 µM in each case. Moreover, the GI50 in the assay with KM12 colon, in the assay on ACHN renal, with SW-620 colon and in the assay on 786-0 renal was over 100 µM throughout. The TGI in the assay on HT29 colon, with OVCAR-4 ovarian, with M14 melanoma, in the assay with HL-60(TB) leukemia, in the assay with COLO 205 colon and in the assay on UACC-62 melanoma was over 100 µM in each case. Also, the TGI in the assay on KM12 colon, with ACHN renal, with SW-620 colon and in the assay on 786-0 renal was over 100 µM throughout.
With `CCOC(=O)c1noc2c1CCc1c-2cn(Cc2ccc(OC)cc2)c1-c1cc(OC)c(OC)c(OC)c1`, the GI50 with HT29 colon is 0.846 µM; with OVCAR-4 ovarian it was 20.5 µM; with M14 melanoma, 0.41 µM; with HL-60(TB) leukemia, 0.452 µM; with COLO 205 colon, 1.77 µM; with UACC-62 melanoma, 2.74 µM. Moreover, the GI50 is 0.91 µM in the assay with KM12 colon, 3.51 µM with ACHN renal, 0.497 µM in the assay with SW-620 colon and 3.65 µM in the assay on 786-0 renal. In addition, the TGI is over 100 µM in the assay on HT29 colon; over 100 µM in the assay on OVCAR-4 ovarian; over 100 µM with M14 melanoma; 4.89 µM in the assay with HL-60(TB) leukemia; 7.82 µM in the assay with COLO 205 colon; over 100 µM in the assay on UACC-62 melanoma. Also, the TGI with KM12 colon, in the assay on ACHN renal, with SW-620 colon and in the assay on 786-0 renal was over 100 µM in each case.
Take `O=C1C=C(Nc2ccccc2)c2ccccc2C1=O`: the GI50 in the assay on HT29 colon is 2.35 µM; with OVCAR-4 ovarian, 1.68 µM; with M14 melanoma it was 1.96 µM; in the assay with HL-60(TB) leukemia it was 2.82 µM; in the assay on COLO 205 colon it was 1.96 µM; in the assay on UACC-62 melanoma, 1.65 µM. Besides, the GI50 with KM12 colon was 2.94 µM; with ACHN renal it was 2.56 µM; in the assay on SW-620 colon, 2.1 µM; in the assay with 786-0 renal, 5.17 µM. Besides, the TGI in the assay on HT29 colon stood at 5.17 µM; in the assay with OVCAR-4 ovarian it was 3.53 µM; in the assay with M14 melanoma it was 3.65 µM; with HL-60(TB) leukemia it was 7.83 µM; in the assay with COLO 205 colon, 3.61 µM; with UACC-62 melanoma, 3.12 µM. Besides, the TGI with KM12 colon was determined as 9.17 µM; with ACHN renal it was 7.88 µM; in the assay with SW-620 colon it was 5.33 µM; with 786-0 renal, 18.9 µM.
In the case of `O=C(CCCc1ccc(N(CCCl)CCCl)cc1)NCc1ccccc1`, the GI50 was 8.21 µM in the assay on HT29 colon; 12.5 µM with OVCAR-4 ovarian; 4.18 µM in the assay on M14 melanoma; 4.37 µM in the assay with HL-60(TB) leukemia; 13.5 µM in the assay on COLO 205 colon; 4.69 µM with UACC-62 melanoma. Moreover, the GI50 was 12.3 µM in the assay on KM12 colon, 3.91 µM with ACHN renal, 6.4 µM with SW-620 colon and 3.32 µM in the assay with 786-0 renal. In addition, the TGI is 52 µM in the assay with HT29 colon; 35.1 µM with OVCAR-4 ovarian; 24.2 µM in the assay on M14 melanoma; 23.4 µM in the assay on HL-60(TB) leukemia; 33 µM in the assay with COLO 205 colon; 22 µM in the assay with UACC-62 melanoma. Also, the TGI in the assay with KM12 colon is 52.1 µM; with ACHN renal it was over 100 µM; in the assay on SW-620 colon it was 73.4 µM; in the assay on 786-0 renal it was 23.3 µM.
As to `CC(C)=CCC/C(C)=C/CC/C(C)=C/CSC[C@H](NC(=O)CCCCCN1CCN(C)CC1)C(=O)NC1CCCCCC1`, the GI50 is 2.19 µM with HT29 colon; 3.21 µM in the assay on OVCAR-4 ovarian; 1.73 µM in the assay with M14 melanoma; 1.98 µM in the assay on HL-60(TB) leukemia; 1.85 µM in the assay with COLO 205 colon; 1.78 µM in the assay with UACC-62 melanoma. Besides, the GI50 is 1.97 µM in the assay with KM12 colon, 1.75 µM with ACHN renal, 1.87 µM in the assay on SW-620 colon and 1.77 µM with 786-0 renal. Further, the TGI came to 4.74 µM in the assay with HT29 colon; 13.1 µM in the assay with OVCAR-4 ovarian; 3.43 µM in the assay on M14 melanoma; 4.14 µM in the assay with HL-60(TB) leukemia; 3.63 µM in the assay with COLO 205 colon; 3.44 µM with UACC-62 melanoma. For the same compound, the TGI with KM12 colon is 3.86 µM; with ACHN renal, 3.21 µM; in the assay on SW-620 colon it was 3.88 µM; in the assay with 786-0 renal, 3.19 µM.
For `Cc1c2cnccc2c(C)c2c1c1ccccc1n2CCOC(=O)c1ccccc1`, the TGI in the assay with HT29 colon is 54.1 µM; with OVCAR-4 ovarian, 49.3 µM; in the assay with M14 melanoma it was over 100 µM; with HL-60(TB) leukemia, 26 µM; in the assay with COLO 205 colon, 47 µM; in the assay on UACC-62 melanoma, 34.8 µM. In addition, the TGI in the assay on KM12 colon was over 98 µM; in the assay on ACHN renal, 56.3 µM; in the assay on SW-620 colon, 53.7 µM; with 786-0 renal, 28.6 µM.
Regarding `CC1CCCCCC(=O)c2c(O)cc(O)cc2CC(=O)O1` (stereo not given), the TGI with HT29 colon, in the assay with OVCAR-4 ovarian, in the assay with M14 melanoma, with HL-60(TB) leukemia, in the assay with COLO 205 colon and in the assay on UACC-62 melanoma was over 100 µM throughout. Also, the TGI in the assay on KM12 colon, in the assay with ACHN renal, in the assay on SW-620 colon and in the assay on 786-0 renal was over 100 µM in each case.
For `Cn1cc(C2=C(c3ccsc3)C(=O)NC2=O)c2ccccc21`, the GI50 in the assay with HT29 colon, in the assay on OVCAR-4 ovarian, in the assay with M14 melanoma, in the assay with HL-60(TB) leukemia, in the assay on COLO 205 colon and with UACC-62 melanoma was over 25 µM in each case. Further, the GI50 with KM12 colon, in the assay with ACHN renal, in the assay with SW-620 colon and in the assay with 786-0 renal was over 25 µM throughout. Moreover, the TGI with HT29 colon, in the assay with OVCAR-4 ovarian, in the assay with M14 melanoma, in the assay on HL-60(TB) leukemia, in the assay on COLO 205 colon and in the assay with UACC-62 melanoma was over 25 µM each time. Besides, the TGI with KM12 colon, in the assay with ACHN renal, with SW-620 colon and in the assay on 786-0 renal was over 25 µM in each case.
Regarding `O=C(O)/C=C\C(=O)Nc1ccc2c(c1)-c1ccccc1C2`, the TGI in the assay on HT29 colon, with OVCAR-4 ovarian, in the assay with M14 melanoma, with HL-60(TB) leukemia, in the assay on COLO 205 colon and with UACC-62 melanoma was over 100 µM throughout. For the same compound, the TGI in the assay with KM12 colon, in the assay on ACHN renal, with SW-620 colon and in the assay on 786-0 renal was over 100 µM in each case.
